# According to ChEMBL document CHEMBL5137025, “Tuberculosis Drug Discovery: Challenges and New Horizons” (J Med Chem, 2022):
# Tests used:
# [1] = test system: Mycobacterium tuberculosis; assay: Antibacterial activity against Mycobacterium tuberculosis Kurono in chronic Mtb infection Slc:ICR mouse model assessed as reduction in log10 CFU in lungs at 2.5 mg/kg, po qd for 4 weeks; type: functional
# [2] = test system: Mycobacterium tuberculosis; type: functional; details: H37Rv
# [3] = Aqueous solubility of compound in PBS at pH 7.4 incubated for 1 hr; type: physicochemical
# [4] = test system: Mycobacterium tuberculosis; assay: microbe, parasite or virus in culture; details: H37Rv
# Description: Antibacterial activity against Mycobacterium tuberculosis H37Rv assessed as inhibition of bacterial growth
# [5] = test system: Mycobacterium tuberculosis; type: functional; details: H37Rv, time 14-21 day
# [6] = test system: Mycobacterium tuberculosis; type: functional; details: H37Rv, 120 h, time 5 day
# [7] = AUC in overnight fasted Sprague-Dawley rat at 5 mg/kg measured for 0.25 to 24 hrs; type: ADME, organism-based; design: time upper 24 hrs, dose 5 mg/kg, time lower 0.25 hrs; details: in vivo
# [8] = Half life in overnight fasted Sprague-Dawley rat at 5 mg/kg measured for 0.25 to 24 hrs; type: ADME, organism-based; details: in vivo, time 0.25-24 hrs
# A549 [9] = assay: Cytotoxicity against human A549 cells; type: functional
# A549 [10] = assay: Potency index, ratio of SKLB-TB1001 to test compound CC50 for cytotoxicity against human A549 cells; type: functional
# [11] = Absolute oral bioavailability in overnight fasted Sprague-Dawley rat at 5 mg/kg measured for 0.25 to 24 hrs; type: ADME, organism-based; details: in vivo, time 0.25-24 hrs
# [12] = test system: Mycobacterium tuberculosis; type: functional, H37Rv; details: dose 50 mg/kg/day; route po; time <= 28 day
# [13] = target: Voltage-gated inwardly rectifying potassium channel KCNH2 (Homo sapiens, UniProt Q12809)
# [14] = Cytotoxicity against African green monkey Vero cells treated for 72 hrs by MTT assay; type: toxicity, cell-based; details: chlorocebus sabaeus
# HepG2 [15] = assay: Cytotoxicity against human HepG2 cells treated for 72 hrs by MTT assay; type: functional
# [16] = test system: Mycobacterium tuberculosis; assay: Antibacterial activity against Mycobacterium tuberculosis in chronic Mtb infection BALB/c mouse model assessed as reduction in log10 CFU in lungs at 200 mg/kg for 4 weeks; type: functional
# [17] = test system: Mycobacterium tuberculosis; assay: Antibacterial activity against Mycobacterium tuberculosis in acute Mtb infection BALB/c mouse model assessed as reduction in log10 CFU in lungs at 100 mg/kg for 3 weeks; type: functional
# [18] = test system: Mycobacterium tuberculosis; assay: Antibacterial activity against Mycobacterium tuberculosis in chronic Mtb infection Wistar rat model assessed as reduction in log10 CFU in lungs at 100 mg/kg, po; type: functional
# [19] = test system: Mycobacterium tuberculosis; type: functional; details: H37Rv, 168 h, time 7 day
# [20] = test system: Mycobacterium tuberculosis; type: functional, H37Rv; details: dose 25 mg/kg; route po; time 8 weeks
# [21] = test system: Mycobacterium tuberculosis; type: functional; details: H37Rv, 336 h, time 14 day
# [22] = test system: Mycobacterium tuberculosis; assay: Antibacterial activity against Mycobacterium tuberculosis assessed as inhibition of bacterial growth; type: functional
# HepG2 [23] = assay: Cytotoxicity against human HepG2 cells; type: functional
# [24] = test system: Mycobacterium tuberculosis; type: functional, H37Rv; details: dose 50 mg/kg; route po; time 4 weeks
# [25] = Selectivity index, ratio of CC50 for human HepG2 cells to MIC99 for Mycobacterium tuberculosis H37Rv; type: toxicity
# [26] = test system: Mycobacterium tuberculosis; type: functional; details: H37Rv, time 6 day
# [27] = Solubility of the compound; type: physicochemical
# [28] = Protein binding in human plasma; type: ADME, cell-free; details: read-out: PPB (converted)
# [29] = test system: Mycobacterium tuberculosis; assay: Antibacterial activity against Mycobacterium tuberculosis Erdman in acute Mtb infection BALB/c mouse model assessed as reduction in log10 CFU in lungs at 150 mg/kg, po via gavage daily for 4 weeks; type: functional
# [30] = Cytotoxicity against human MRC5 cells; type: toxicity, cell-based
# [31] = test system: Mycobacterium tuberculosis; assay: Antibacterial activity against non-replicating Mycobacterium tuberculosis assessed as inhibition of bacterial growth; type: functional
# [32] = test system: Mycobacterium tuberculosis; assay: Antibacterial activity against Mycobacterium tuberculosis Erdman in acute Mtb infection BALB/c mouse model assessed as reduction in log10 CFU in lungs at 200 mg/kg, po daily via gavage for 3 weeks; type: functional
# [33] = test system: Mycobacterium tuberculosis; type: functional; details: H37Rv, 168 h, time 7 day; remark: listed apart in the source
# [34] = test system: Mycobacterium tuberculosis; assay: Bactericidal activity against Mycobacterium tuberculosis H37Rv in chronic Mtb infection BALB/c mouse model assessed as log10 CFU kill at 20 mg/kg, po qd via gavage measured after 4 weeks; type: functional
# [35] = test system: Mycobacterium tuberculosis; assay: Antibacterial activity against Mycobacterium tuberculosis Erdman in acute Mtb infection C57BL/6-IFN-gamma-tm1Ts KO mouse model assessed as reduction in log10 CFU in lungs at 50 mg/kg, po qd for 9 consecutive days; type: functional
# [36] = test system: Mycobacterium tuberculosis; assay: Antibacterial activity against Mycobacterium tuberculosis Erdman (TMCC 107) in Mtb infection C3HeB/FeJ mouse model assessed as reduction in log10 CFU in lungs at 100 mg/kg, po via gavage upto 4 weeks; type: functional
# [37] = Half life in CD-1 mouse at 5 mg/kg, iv measured for 24 hrs; type: ADME, organism-based; details: in vivo
# [38] = test system: Mycobacterium tuberculosis; assay: Antibacterial activity against Mycobacterium tuberculosis Erdman (TMCC 107) in chronic Mtb infection BALB/c mouse model assessed as reduction in log10 CFU in lungs at 100 mg/kg, po via gavage upto 8 weeks; type: functional
# [39] = Oral bioavailability in CD-1 mouse at 10 mg/kg measured for 24 hrs; type: ADME, organism-based; details: in vivo
# HepG2 [40] = assay: Cytotoxicity against human HepG2 cells assessed as reduction in cell viability treated for 72 hrs by Cell Titer Glo assay; type: functional
# Sequence of Voltage-gated inwardly rectifying potassium channel KCNH2 (Q12809 whole entry): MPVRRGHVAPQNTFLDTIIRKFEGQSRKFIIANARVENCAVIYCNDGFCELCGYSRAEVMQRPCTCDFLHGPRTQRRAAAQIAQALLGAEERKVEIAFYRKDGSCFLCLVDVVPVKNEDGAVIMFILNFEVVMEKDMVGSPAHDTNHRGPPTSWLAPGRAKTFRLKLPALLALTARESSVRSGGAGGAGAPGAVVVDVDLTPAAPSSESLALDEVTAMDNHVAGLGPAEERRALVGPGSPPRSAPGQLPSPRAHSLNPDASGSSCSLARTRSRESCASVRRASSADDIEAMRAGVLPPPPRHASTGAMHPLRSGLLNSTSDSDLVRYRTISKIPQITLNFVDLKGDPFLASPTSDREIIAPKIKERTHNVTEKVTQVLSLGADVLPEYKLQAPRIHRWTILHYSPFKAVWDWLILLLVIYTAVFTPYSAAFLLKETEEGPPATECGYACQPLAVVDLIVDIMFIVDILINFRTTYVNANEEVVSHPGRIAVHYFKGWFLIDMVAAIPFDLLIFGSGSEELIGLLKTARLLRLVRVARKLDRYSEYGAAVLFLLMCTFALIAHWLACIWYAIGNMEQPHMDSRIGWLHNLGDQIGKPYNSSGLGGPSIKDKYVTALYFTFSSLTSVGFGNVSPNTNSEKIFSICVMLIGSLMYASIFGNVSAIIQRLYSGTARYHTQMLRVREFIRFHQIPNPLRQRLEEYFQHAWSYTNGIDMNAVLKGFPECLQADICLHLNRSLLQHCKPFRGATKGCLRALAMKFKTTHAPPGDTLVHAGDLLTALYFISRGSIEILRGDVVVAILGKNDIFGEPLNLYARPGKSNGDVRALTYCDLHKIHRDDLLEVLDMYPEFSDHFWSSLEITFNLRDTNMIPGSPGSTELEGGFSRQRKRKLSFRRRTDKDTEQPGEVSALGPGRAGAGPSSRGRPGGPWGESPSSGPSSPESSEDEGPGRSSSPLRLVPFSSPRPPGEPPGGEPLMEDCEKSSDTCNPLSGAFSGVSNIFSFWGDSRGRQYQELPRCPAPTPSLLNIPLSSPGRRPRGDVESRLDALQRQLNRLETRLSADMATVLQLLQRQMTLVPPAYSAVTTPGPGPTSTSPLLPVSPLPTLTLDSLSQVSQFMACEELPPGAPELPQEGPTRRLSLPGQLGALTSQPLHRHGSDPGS
smiles,measurement,setting,value
O=C1CCc2c(OC[C@]3(O)CCN(c4c(F)cc(Cl)cc4F)C[C@H]3O)ccc(F)c2N1 [QUABODEPISTAT],Activity,[1],>1 log10CFU
Cc1ccn(C(C)c2nnc(Nc3ccn(Cc4c(F)cccc4Cl)n3)s2)n1 (centres undefined),MIC90,[2],1 µM
same,solubility at 1 h,[3],9 µM
CC(C)=CCC/C(C)=C/CNCCNC1C2CC3CC(C2)CC1C3 (centres undefined) [SQ109],MIC,[4],1.2 µM
CC(=O)NC[C@H]1CN(c2ccc(N3CCOCC3)c(F)c2)C(=O)O1 [LINEZOLID],MIC,[5],1.5 µM
same,MIC,[4],1.5 µM
O=S1(=O)C[C@H](O)[C@@H](N2CCN(c3ccccc3Cl)CC2)C1,MIC,[4],0.76 µM
CS(=O)(=O)N1N=Cc2ccc(Oc3ccc(C#N)cc3)cc2B1O,MIC90,[6],36 µM
C[C@H]1COC2(CCN(c3nc(=O)c4cc(C(F)(F)F)cc([N+](=O)[O-])c4s3)CC2)O1 [BTZ-043],AUC,[7],899 ng·h/mL
same,half-life,[8],1.2 h
same,CC50,A549 [9],58 µM
same,Ratio,A549 [10],4
same,bioavailability,[11],30%
same,Activity,[12],0.6 log10CFU
CCOC(=O)NC(=O)c1ccsc1NC(=O)c1nc2cnccc2s1,IC50,[13],> 30 µM
same,CC50 at 72 h,[14],> 100 µM
same,CC50,HepG2 [15],> 100 µM
same,Activity,[16],>1.7 log10CFU
same,MIC90,[4],0.089 µM
same,Activity,[17],2.3 log10CFU
CC(=O)NC[C@H]1CN(c2ccc(N3CCSCC3)c(F)c2)C(=O)O1 [SUTEZOLID],MIC80,[4],0.28 µM
CC(Nc1nc(N2CCCCC2)nc2ccccc12)c1ccccc1 (centres undefined),MIC80,[4],25 µM
COc1ncnc(Cn2cc(C(=O)NCCO)c3ncc(C)cc32)c1C [TBA-7371],Activity,[18],1 log10CFU
O=S(=O)(NCCO)c1ccc(-c2nnn(Cc3ccc(F)cn3)n2)cc1,MIC,[4],0.07 µM
CON=C1CCC(CN2CCN(c3nc(=O)c4cc(C(F)(F)F)cc([N+](=O)[O-])c4s3)CC2)CC1 (centres undefined),MIC90,[19],0.028 µM
same,Activity,[20],1.8 log10CFU
O=C(Nc1ccc(N2CCSCC2)c(F)c1)c1ccc2no[n+]([O-])c2c1,MIC90,[21],0.7 µM
CCNC(=O)Nc1nc2cc(-c3cnc(C(C)(C)O)nc3)c(F)c([C@H]3CCCO3)c2[nH]1,MIC90,[22],0.07 µM
O=c1nc(N2CCN(S(=O)(=O)C3CC3)CC2)sc2c([N+](=O)[O-])cc(C(F)(F)F)cc12,CC50,HepG2 [23],17 µM
same,Activity,[24],0.5 log10CFU
same,selectivity ratio,[25],2620
same,MIC99,[26],0.0065 µM
same,solubility,[27],19 µM
O=c1nc(N2CCC3(CC2)OCCO3)sc2c([N+](=O)[O-])cc(C(F)(F)F)cc12,AUC,[7],847 ng·h/mL
same,half-life,[8],1.5 h
same,CC50,A549 [9],> 231 µM
same,fraction unbound,[28],0.006
same,solubility,[27],< 2.3 µM
same,Activity,[29],3.4 log10CFU
same,MIC90,[4],0.045 µM
same,bioavailability,[11],44%
O=C(N/N=C/c1cccc(Oc2no[n+]([O-])c2S(=O)(=O)c2ccccc2)c1)c1ccncc1,CC50,[30],30 µM
same,MIC90,[31],6.7 µM
same,Activity,[32],>6 log10CFU
same,MIC,[33],1.6 µM
CC(C)/N=c1\cc2n(-c3ccc(Cl)cc3)c3ccccc3nc-2cc1Nc1ccc(Cl)cc1 [CLOFAZIMINE],Activity,[34],2.2 log10CFU
c1cc2c(s1)CCOC21CCN(Cc2ccc3c(c2)OCCO3)CC1,MIC90,[4],0.3 µM
O=C(N/N=C/c1ccc(Oc2no[n+]([O-])c2S(=O)(=O)c2ccccc2)cc1)c1ccncc1,CC50,[30],43 µM
same,MIC90,[31],9.8 µM
same,Activity,[32],>6 log10CFU
same,MIC,[33],1 µM
CCS(=O)(=O)N1N=Cc2ccc(Oc3ccc(C(F)(F)F)cc3/C=N/O)cc2B1O,Activity,[35],3.7 log10CFU
same,Activity,[36],1.5 log10CFU
same,half-life,[37],3.5 h
same,MIC90,[6],0.09 µM
same,Activity,[38],1.7 log10CFU
same,bioavailability,[39],53%
same,CC50,HepG2 [40],> 100 µM
Fc1ccc(-c2nnc3sc(COc4ccccc4)nn23)cc1,MIC,[4],25 µM
